The source of these data is patent publication US20070105114A1, “Biomarkers of cyclin-dependent kinase modulation” (priority 2003, published 2007).

Experiment [1] concerns mouse ortholog of W28729. Briefly: Mouse ortholog of W28729 expression in PBMC of tumor mice. The class given is in vivo. As to conditions: PBMC isolated from the tumor mice, compared with tumors. The protocol:
At the minimum efficacious dose (MED) of 18 mg/kg/day, the induction was sustained for more than 6 hours. In an infusion regimen using the minimum efficacious dose of 40 mg/kg, gene induction was sustained for at least 16 hours. […] Treatment with an efficacious regimen results in >2 fold induction of the sequence for 6 hours or longer. […] In addition, these observations support the use of PBMC as a surrogate tissue for monitoring changes in gene expression, that result from treatment with the cdk2 inhibitor.

The test system of experiment [2] is A2780s. Kind of experiment: 72 hr XTT proliferation assay. In kind it is cell-based. As to conditions: Homo sapiens, 72 hr. XTT assay. The protocol:
Treatment of A2780 and PBMC was carried out as described above. The doses of the cdk2 inhibitor were derived from an understanding of the kinetics of tumor cell growth inhibition by the cdk2 inhibitor as assessed by proliferation and clonogenic assays (Table 3). […] A minimal exposure of 8 hours was required for effective inhibition of colony formation. The values obtained from the 24 hour clonogenic assay were in good agreement with the 72 hour proliferation assay.
(Tetrazolium assays rely on reduction of a dye to a coloured formazan, in cell work by metabolically active cells.)

Experiment [3] concerns W28729. Kind of experiment: W28729 expression in human ovarian carcinoma xenograft A2780 tumors in nude mice. In kind it is in vivo, mouse. The protocol: The human ovarian carcinoma xenograft A2780s were maintained in Balb/c nu/nu nude mice. Tumors were propagated as subcutaneous (sc) transplants using tumor fragments obtained from donor mice. For the cdk2 inhibitor treatment, tumors were allowed to grow to the pre-determined size window of approximately 100-200 mg (tumors outside the range were excluded) and animals were evenly distributed to various treatment and control groups (n=6). Treatment of each animal was based on individual body weight. The cdk2 inhibitor was first dissolved in a mixture of Cremophor®/ethanol (50:50). One hour prior to administration, the cdk2 inhibitor was diluted with water so that the dosing solutions contained the specified excipient composition, i.e., Cremophor®/ethanol/water (1:1:8, v/v). The volume of all compounds injected was 0.01 ml/gm of mice. The cdk2 inhibitor was administered as a bolus injection intraperitoneal at doses of 36 and 18 mg/kg. Tumor and plasma were sampled at the time points of 4, 7, and 24 hour post treatment. Plasma sample was frozen immediately at −80° C. for pharmacokinetic analysis, and tumor sample was preserved in RNAase free buffer for pharmacogenomic analysis. The biomarker W28729 (SEQ ID NO: 1246) was selected as a preferred marker. A same-well multiplex real-time quantitative PCR assay on this biomarker with normalization control, house-keeping gene GAPDH, was developed using Taq-man MGB probes. Gene expression changes for W28729 were measured with real-time quantitative PCR assays in the following sample sets: A2780 human tumor cell line treated with 20 nM of cdk2 inhibitor for different durations (FIG. 3A), PBMC treated with 10n-M cdk2 inhibitor at 4 hours (FIG. 3B); and human ovarian carcinoma xenograft A2780 treated with cdk2 inhibitor at doses of 36 and 18 mg/kg for different durations (FIG. 3C). […] At the minimum efficacious dose (MED) of 18 mg/kg/day, the induction was sustained for more than 6 hours. In an infusion regimen using the minimum efficacious dose of 40 mg/kg, gene induction was sustained for at least 16 hours. […] Treatment with an efficacious regimen results in >2 fold induction of the sequence for 6 hours or longer. […] In addition, these observations support the use of PBMC as a surrogate tissue for monitoring changes in gene expression, that result from treatment with the cdk2 inhibitor.
(In general: Xenograft models place foreign cells or tissue in a host animal.)

The subject of experiment [4] is W28729. Briefly: Clinical study CA174-001 (1 hr infusion), W28729 expression in patient PBMC by RT-PCR. In kind it is in vivo, human. As to conditions: patients. Here is the method: Patient inclusion criteria: The patient inclusion criteria included: primary solid malignancy refractory to current therapy and adequate bone marrow, hepatic, and renal function. Treatments: Two different treatments were undertaken: (i) 174-001 Study: 1 hr infusion of BMS-387032 q 3 wks; and (ii) 174-002 Study: 24 hr infusion of BMS-387032 q 3 wks. The sampling times were pre-dose, and 2, 6, 24 hour post-dose. W28729 Expression Analysis: RT-PCR. Patient blood samples were collected in PAXgene™ Blood Collection Tubes (Qiagen, catalog #762155). Total RNA was isolated following the manufacturer's instructions using a PAXgene™ blood RNA Kit (Qiagen, catalog #762134). W28729 and GAPDH (housekeeping gene) RNA abundance was measured by Taqman assays, using an ABI PRISM 7900 HT Sequence Detection System. W28729 abundance was normalized relative to GAPDH. Primer and probe sequences are as shown below.

Experiment [5] has as its system A2780 ovarian carcinoma cells. Kind of experiment: Clonogenic growth assay (colony formation). The class given is cell-based, human. As to conditions: for IC50 / IC90: Homo sapiens, A2780, A2780s Clonogenic assay; for IC50: read-out: IC50, inhibition of colony formation; for IC90: read-out: IC90, inhibition of colony formation. The protocol:
Clonogenic Growth Assay: The colony growth inhibition was measured for the A2780 ovarian carcinoma cells using a standard clonogenic assay. In this assay, 200 cells/well were seeded into 6-well tissue culture plates (Falcon™) (Becton, Dickinson and Company, Franklin Lakes, N.J., USA) and allowed to attach for 18 hours. Assay medium consisted of RPMI-1640 plus 10% fetal bovine serum. Cells were then treated in duplicate with a six concentration dose-response curve. The maximum concentration of DMSO never exceeded 0.25%. Cells were exposed to the cdk2 inhibitor for 4, 8, or 24 hours. The cdk2 inhibitor was then removed and the cells were washed with 2 volumes of PBS. The normal growth medium was then replaced. Colonies were fed with fresh media every third day. Colony number was scored on day 10-14 using a Optimax imaging station. The cdk2 inhibitor concentration required to inhibit 50% or 90% of colony formation (IC50 or IC90, respectively) was determined by non-linear regression analysis. The coefficient of variance (standard deviation/mean, n=3)=30%. Treatment of A2780 and PBMC was carried out as described above. The doses of the cdk2 inhibitor were derived from an understanding of the kinetics of tumor cell growth inhibition by the cdk2 inhibitor as assessed by proliferation and clonogenic assays (Table 3). […] A minimal exposure of 8 hours was required for effective inhibition of colony formation. The values obtained from the 24 hour clonogenic assay were in good agreement with the 72 hour proliferation assay.

Where a name gives a salt, the structure may show the parent alone. Read-outs that look alike come from different tables or passages of the source.

By IC50 is commonly meant the concentration that gives 50% inhibition. Usually IC90 stands for the concentration needed for an effect of 90%.

Regarding `CC(C)(C)c1cnc(CSc2cnc(NC(=O)C3CCNCC3)s2)o1` [cdk2 inhibitor, N-5-[[5-(1,1-Dimethylethyl)-2-oxazolyl]methyl]thio]-2-thiazolyl-4-piperidinecarboxamide, 0.5-L-tartaric acid salt], the “induction of the mouse ortholog sequence in PBMC” value in experiment [1] was “strikingly similar pattern of induction”. In addition, the IC50 in experiment [2] was 95 nM; in experiment [5] (4 hr. exposure), 302 nM; in experiment [5] (8 hr. exposure), 154 nM; in experiment [5] (24 hr. exposure) it was 166 nM. Further, the IC90 in experiment [2] was 170 nM; in experiment [5] (4 hr. exposure), greater than 1000 nM; in experiment [5] (8 hr. exposure), 303 nM; in experiment [5] (24 hr. exposure), 208 nM. In addition, in experiment [3] (A2780 xenografts, bolus i.p. treatments), the “pattern of W28729 induction in the tumors” value is listed as “transient, dose-dependent manner”. Also, in experiment [3] (A2780 xenografts, bolus i.p., MED of 18 mg/kg/day), the “duration of sustained W28729 induction” value is given as “more than 6 hours”. Further, in experiment [3] (A2780 xenografts, infusion regimen, 40 mg/kg), the “duration of sustained gene induction” value is reported as “at least 16 hours”. Further, the “induction of the sequence” value in experiment [3] (efficacious regimen, for 6 hours or longer) was greater than 2 fold. Further, in experiment [3] (nude mice bearing A2780 xenografts, 36 and 18 mg/kg), the “duration of W28729 gene induction versus dose” value is “dose-dependent prolongation of the duration of gene induction”. For the same compound, in experiment [3] (nude mice bearing A2780 xenografts, efficacious doses (36 and 18 mg/kg)), the “induction of W28729 in tumor” value is “induction of W28729”. The “time of return of W28729 to baseline levels” value in experiment [4] (1 hour infusion) was no more than 6 h. For the same compound, in experiment [4] (1 hour infusion, at 2 hours), the “W28729 induction in PBMC” value is listed as “transient induction of W28729”. For the same compound, the “relationship between W28729 gene induction and dose or exposure (AUC)” value in experiment [4] (CA174-001) was “linear relationship”. Moreover, in experiment [5] (A2780s), the “minimal exposure required for effective inhibition of colony formation” value came to 8 h. Also, the “growth inhibition, dependence on exposure time” value in experiment [5] (A2780s, proliferation and clonogenic assays) is reported as “time dependent”.
